Columns and labels:
Raji cells = test: Hematologic tumor mouse model of lymphoma Raji cells, survival; type: in vivo, NOD/SCID mice; details: 10 mg/kg intraperitoneal, 21 consecutive days
Description: A hematologic tumor mouse model was established using hematologic tumor Raji cells. The anti-CD47 antibodies were applied to the model for the evaluation of the pharmacodynamic activity.
A suspension of Raji cells in a PBS buffer was prepared at a concentration of 5×10^6 cells/mL, and was injected into female NOD/SCID mice via the tail vein at 0.1 mL/mouse. […] The administration was performed by intraperitoneal injection in doses of 10 mg/kg for 21 consecutive days. The survival time of the animals was observed.

HL60 cells = test: Promotion of macrophage phagocytosis of tumor cells (flow cytometry); type: cell-based; details: CFSE-labeled HL60 cells, human macrophages
Description: The ability of the anti-CD47 antibodies to promote the phagocytosis of tumor cells by macrophages having SIRPα on the cell surface was determined based on flow cytometry.
Monocytes were isolated from human peripheral blood mononuclear cells (PBMC, Sailybio, Cat. No. 190056) using a monocyte isolation kit ([…], Cat. No. 19058), plated into a 24-well plate (Greiner bio-one, Cat. No. 662-160) at […] cells per well, and induced under 100 ng/mL stimulating factor M-CSF (R&D Systems, Cat. No. 216-MC-010) for 7 days to form macrophages. 1×10^6 target cells HL60 (Shanghai Institute of Biochemistry and Cell Biology, Chinese Academy of Sciences, Cat. No. TCHu23) were suspended in […] CFSE (BD Biosciences, Cat. No. 565082) fluorescent dye (diluted with a PBS buffer to the desired concentration), incubated in a water bath at 37° C. in the dark for 15 min, and washed with a PBS buffer to prepare CFSE-labeled HL60 cells, which were then incubated with each of 10 μg/mL and 1 μg/mL anti-CD47 antibodies (see Table 3 for chimenic antibodies, and see Table 4 for humanized antibodies) in an incubator at 37° C. with 5% CO2 for 1-2 h. The HL60 cells after the incubation were washed three times with a PBS buffer and added to the macrophages. […] The rate of phagocytosis (%) by the macrophages was determined using a flow cytometer (BD Biosciences, model: C6).

[1] = system: human B-cell lymphoma Daudi; test: Subcutaneous mouse xenograft tumor of Daudi; type: in vivo, NOD-SCID mice; details: IV D0, 3, hz14A9-2.3 1.5 mg/kg, Rituximab 3 mg/kg
Description: The experimental animals were NOD-SCID mice (5-6 weeks old, male) purchased from Shanghai Lingchang Biotechnology Co., Ltd., with the production license number of SCXK (Hu) 2018-0003 and the animal certification number of 20180003014870. The housing environment was in a SPF grade. Human B-cell lymphoma Daudi cells were purchased from Cell Bank of the Chinese Academy of Sciences. Daudi cells were cultured in an incubator at 37° C. with 5% CO2 in air. Subculturing was performed twice a week, and when the cells were in a logarithmic growth phase, the cells were collected, counted, and inoculated. 1×10^7 Daudi cells were inoculated to each mouse subcutaneously, and when tumors reached the volume of about 100 mm^3, the mice were divided into groups and injected with drugs intravenously (IV) once every 3 days (Q3D) for a total of 2 times at the injection volume of 0.1 mL/10 g of body weight.
(§1) The experimental index was to investigate the effects of the drugs on the tumor growth, and the specific index was T/C % or the tumor growth inhibition rate (TGI %, tumor growth inhibition).
(§2) Tumor diameters were measured twice a week with a vernier caliper and tumor volume (V) was calculated according to the following formula: […]
(§3) where a and b represent length and width, respectively.
(§4) T/C (%)=(T−T0)/(C−C0)×100,
(§5) where T and C are the tumor volumes of animals at the end of the experiment in the test group and the negative control group, respectively; T0 and C0 are the tumor volumes of animals at the beginning of the experiment in the test group and the negative control group, respectively.
(§6) If the volume of tumor shrinks compared with its initial volume, i.e., T<T0 […], it is defined as partial regression (PR) of tumor; if the tumor completely disappears, it is defined as complete regression (CR) of tumor.
At the end of the experiment (D24), the animals were sacrificed by CO2 anesthesia and dissected to give the tumors. The tumors were photographed.

[2] = system: human acute myeloblastic leukemia MOLM-16; test: Subcutaneous mouse xenograft tumor of MOLM-16; type: in vivo
Description: The experimental animals were NOD-SCID mice (5-6 weeks old, female) purchased from Beijing Huafukang Biotechnology Co., Ltd., with the production license number of SCXK (Jing) 2019-0008 and the animal certification number of 110322211100910838. The housing environment was in a SPF grade. Human acute myelocytic leukemia MOLM-16 cells were purchased from DSMZ. MOLM-16 cells were cultured in an incubator at 37° C. with 5% CO2 in air. Subculturing was performed twice a week, and when the cells were in a logarithmic growth phase, the cells were collected, counted, and inoculated. 1×10^7 MOLM-16 cells were inoculated to each mouse subcutaneously, and when tumors reached the volume of 100-150 mm^3, the mice were divided into groups and injected with drugs intravenously (IV) at the administration volume of 0.1 mL/10 g of body weight.
as §1, §2, §3, §4, §5, §6
At the end of the experiment, the animals were sacrificed by CO2 anesthesia and dissected to give the tumors. The tumors were photographed.

[3] = Azacitadine 2.5 mg/kg IV QD × 5

Hu5F9: the positive antibody Hu5F9, comparison anti-CD47 antibody [reference compound]
day on which all the animals in the group died (Raji cells): 30 days
median survival time (Raji cells): 18.5 days
rate of phagocytosis (HL60 cells; 1 μg/mL antibody): 67.5%
rate of phagocytosis (HL60 cells; 10 μg/mL antibody): 72.35%

Rituximab: anti-CD20 monoclonal antibody [reference compound]
T/C(%) D24 [1]: 64%
Tumor growth inhibition (%) D24 [1]: 36%
Partial regression (number of tumors) ([1]; hIgG4 4.5 mg/kg, 6 mice per group (hIgG4 10)): 0

Nc1ncn([C@@H]2O[C@H](CO)[C@@H](O)[C@H]2O)c(=O)n1 [Azacitadine, 4-amino-1-β-D-ribofuranosyl-1,3,5-triazin-2(1H)-one]
T/C(%) D12 ([2]; Azacitadine 1 mg/kg IV QD × 5): 50%
Tumor growth inhibition (%) D12 ([2]; Azacitadine 1 mg/kg IV QD × 5): 50%
T/C(%) D12 [2, 3]: 18%
Tumor growth inhibition (%) D12 [2, 3]: 82%
mean tumor volume D17 ([2]; azacitadine 1 mg/kg IV QD×5 monotherapy): 3729.5 ± 436.4 mm^3
mean tumor volume D17 ([2]; azacitadine 2.5 mg/kg IV QD×5 monotherapy): 1920.7 ± 375.6 mm^3

Reference: patent publication US20240269278A1, “ANTI-CD47 ANTIBODY FOR COMBINED TREATMENT OF BLOOD TUMOR” (Nanjing Shunxin Pharmaceuticals Co., Ltd. of Chiatai …, priority 2021, published 2024)
